Laboratory results: patent US20050021241A1, “Gain of function sorting for drug discovery and development” (priority 2003, published 2005)

Assays:
[1] = test system: 5 HT2 A receptor cell lines; assay: FACS sorting of responding cells from a mixture of three color-coded 5 HT2 A receptor cell lines (WT, S3.36 A, S5.46 A); format: cell-based, human
Excerpt: FIG. 18 illustrates the results obtained during steps of GOF sorting of variant Human Serotonin Receptor Type 2A populations. Three populations of cells containing one of three versions of the human serotonin receptor type 2A were stained three distinct “colors” recognizable by the FACS. The populations were combined in equal proportions into one population. One mutant is the S3.36 A, the other mutant is the S5.46 A mutant and the third group is the wild type receptor (WT). The cells were also loaded with the Ca^2+i indicator dye, indol, so that receptor-mediated signaling events could be monitored through the Ca^2+i mobilization response. The combined population was stimulated with increasing concentrations of the test compound, naphthyl piperazine, and the percentage of cells within each colored subpopulation showing a threshold Ca^2+i response was quantified. […] The sorted cells were then re-analyzed to evaluate the subpopulation from which they were derived, based on the distinct “color” used to stain each subpopulation. The identity of the sorted populations that were taken from sorting at several different compound concentrations is shown in the bottom half of the figure. […] At the high and low ends of the concentration range there was no selective responsiveness by the S3.36 A variant cells, and the FACS selected each of the populations equally. […]

[2] = biological target: T1, S3.36 A variant of the 5HT2 A receptor (Homo sapiens, UniProt P28223, S159A); assay: Ca2+i mobilization response (Indo-1, flow cytometry) of cells expressing variant serotonin receptor; format: cell-based
T1 construct: expressed in transfected cells
Excerpt: Step 1: To observe GOF behavior it is necessary to understand the range of compound concentration that activates the wild type receptor (WT). GOF variants will respond to concentrations of the test compound at least 5 fold lower than the minimal concentration that activates the WT. An illustration is shown in FIG. 18 where a dose-response curve for one null function mutant receptor (NF), the serotonin 2 A receptor (5 HT2 A) mutant 5.46, and the WT are shown in the lower graph. The two curves are virtually identical. […] At very low concentrations, only the GOF 3.36 mutant bearing cells are isolated, and the WT and NF 5.46 mutant are only selected as the compound concentration is raised to relatively high concentrations. It will also be necessary to understand the time kinetics of the WT response so that an appropriate time window (TW) region of the response can be selected for the analysis and sort.
FIG. 18 illustrates the results obtained during steps of GOF sorting of variant Human Serotonin Receptor Type 2A populations. Three populations of cells containing one of three versions of the human serotonin receptor type 2A were stained three distinct “colors” recognizable by the FACS. The populations were combined in equal proportions into one population. One mutant is the S3.36 A, the other mutant is the S5.46 A mutant and the third group is the wild type receptor (WT). The cells were also loaded with the Ca^2+i indicator dye, indol, so that receptor-mediated signaling events could be monitored through the Ca^2+i mobilization response. The combined population was stimulated with increasing concentrations of the test compound, naphthyl piperazine, and the percentage of cells within each colored subpopulation showing a threshold Ca^2+i response was quantified. […] The sorted cells were then re-analyzed to evaluate the subpopulation from which they were derived, based on the distinct “color” used to stain each subpopulation. The identity of the sorted populations that were taken from sorting at several different compound concentrations is shown in the bottom half of the figure. […] At the high and low ends of the concentration range there was no selective responsiveness by the S3.36 A variant cells, and the FACS selected each of the populations equally.
GOF sorting enhances drug discovery by providing the ability to identify in a few months the Gain of Function (GOF) receptor variants that normally took years to identify. It was hypothesized that GOF variants could be isolated efficiently from a pool of cells, each expressing a single variant, by sorting responding cells at low concentrations of agonist, using Fluorescence Activated Cell Sorting (FACS). […]

T1 sequence (P28223 whole entry S159A): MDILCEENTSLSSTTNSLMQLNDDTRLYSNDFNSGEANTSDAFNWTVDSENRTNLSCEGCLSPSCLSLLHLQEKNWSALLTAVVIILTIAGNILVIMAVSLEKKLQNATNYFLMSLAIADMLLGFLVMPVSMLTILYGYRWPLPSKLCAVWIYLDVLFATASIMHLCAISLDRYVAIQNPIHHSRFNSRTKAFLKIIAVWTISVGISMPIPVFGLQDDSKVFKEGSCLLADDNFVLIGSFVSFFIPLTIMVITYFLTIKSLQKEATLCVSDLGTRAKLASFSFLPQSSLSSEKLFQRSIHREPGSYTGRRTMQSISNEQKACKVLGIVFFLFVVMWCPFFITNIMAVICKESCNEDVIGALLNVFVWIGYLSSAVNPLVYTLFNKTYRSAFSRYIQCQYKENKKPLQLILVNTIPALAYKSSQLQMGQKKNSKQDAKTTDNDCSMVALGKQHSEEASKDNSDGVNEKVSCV

In the case of c1ccc2c(N3CCNCC3)cccc2c1 [Naphthyl Piperazine], the “share of GOF S3.36 A variant in the sorted population” value ([1]; 50-100 nM agonist concentration range) is reported as 90%, the “agonist concentration range of selective sorting of GOF variant S3.36 A from wild type and S5.46 A” value ([1]; FACS sort of responding cells, mixed pool of 3 cell lines) is reported as 10 to 300 nM and the “agonist concentration at which cells expressing the S3.36 A variant were becoming activated” value ([2]; WT and S5.46 A variant not activated at this concentration) is reported as 3 nM. The “fold lower EC50 of S3.36 A variant than the wild type or the S5.46 A variant” value ([2]; agonist dose-response, S3.36 A vs wild type or S5.46 A 5HT2 A receptor) was 1,000 fold, the “minimum concentration that activates the 3.36 mutant cells, fold lower than that required to activate the WT” value ([2]; mutant 3.36 vs WT, dose-response curve FIG. 18) was “more than 100 fold” and the “affinity of S3.36 A variant for the compound compared with S5.46 A and WT” value ([2]; percentage of cells showing a threshold Ca2+i response, increasing concentrations) was “greater affinity”.
